In BindingDB's records for doi:10.1016/s0960-894x(99)00089-x (Kyoto Pharmaceutical University, 1999):

Experiment: Inhibitory activity against HIV-1 IIIB in CEM-SS infected cells (Experiment 1)

With `Cc1cn([C@H]2C[C@H](N=[N+]=[N-])[C@@H](CO)O2)c(=O)[nH]c1=O` [1-((2R,4S,5S)-4-Azido-5-hydroxymethyl-tetrahydro-furan-2-yl)-5-methyl-1H-pyrimidine-2,4-dione] the EC50 was 126 nM.
